Assay results as given in ChEMBL document CHEMBL1201862, “PubChem BioAssay data set” (2004).
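These data come from cells grown in 96-well plates and exposed to compound for 48 hours at five concentrations. GI50: concentration for 50% inhibition of growth.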 The source made the active and inactive calls. Rule as the data show it: active = GI50 up to about 1.1 µM and inactive = higher.

How the values were obtained:
Experiment in all cases: DTP human tumour cell line panel, 48 h
DMS-114 = tested on: DMS-114
DMS-273 = tested on: DMS-273
HOP-18 = tested on: HOP-18
KM-20L2 = tested on: KM-20L2
M19-MEL = tested on: M19-MEL
RXF 631 = tested on: RXF 631
SNB-78 = tested on: SNB-78
XF498 = tested on: XF498
Hs-578T = tested on: Hs-578T

SMILES: COc1cc2cc(OC(C)=O)c3cc4c(cc3c2c(OC)c1OC)OCO4
- GI50 (DMS-114): > 100 µM (inactive)
- GI50 (DMS-273): > 100 µM (inactive)
- GI50 (HOP-18): > 100 µM (inactive)
- GI50 (KM-20L2): > 100 µM (inactive)
- GI50 (M19-MEL): > 100 µM (inactive)
- GI50 (RXF 631): > 100 µM (inactive)
- GI50 (SNB-78): > 100 µM (inactive)
- GI50 (XF498): > 100 µM (inactive)

SMILES: CN(C)CCNC(=O)c1cccc2ncc(-c3ccccc3)nc12
- GI50 (DMS-114): 12.8 µM (inactive)
- GI50 (DMS-273): 5.09 µM (inactive)
- GI50 (HOP-18): 5.85 µM (inactive)
- GI50 (KM-20L2): 3.81 µM (inactive)
- GI50 (M19-MEL): 14.2 µM (inactive)
- GI50 (RXF 631): 9.59 µM (inactive)
- GI50 (SNB-78): 8.89 µM (inactive)

SMILES: CN(/N=C/c1cccc2cccnc12)c1c([N+](=O)[O-])cc([N+](=O)[O-])cc1[N+](=O)[O-]
- GI50 (DMS-114): 6.52 µM (inactive)
- GI50 (DMS-273): 7.6 µM (inactive)
- GI50 (HOP-18): > 100 µM (inactive)
- GI50 (KM-20L2): > 100 µM (inactive)
- GI50 (M19-MEL): > 100 µM (inactive)
- GI50 (RXF 631): > 100 µM (inactive)
- GI50 (SNB-78): > 100 µM (inactive)
- GI50 (XF498): > 100 µM (inactive)

SMILES: O=C(/C=C/c1ccccc1O)c1cccc2ccccc12
- GI50 (DMS-114): 21.4 µM (inactive)
- GI50 (DMS-273): 54.5 µM (inactive)
- GI50 (HOP-18): 28.1 µM (inactive)
- GI50 (KM-20L2): > 100 µM (inactive)
- GI50 (M19-MEL): > 100 µM (inactive)
- GI50 (RXF 631): > 100 µM (inactive)
- GI50 (SNB-78): > 100 µM (inactive)
- GI50 (XF498): 25.8 µM (inactive)

SMILES: COc1ccc2cc1Oc1ccc(cc1)CC1c3cc(c(OC)cc3CCN1C)Oc1c3c(cc4c1C(C2)N(C)CC4)OCO3 (stereo not given)
- GI50 (DMS-114): 5.74 µM (inactive)
- GI50 (DMS-273): 3.44 µM (inactive)
- GI50 (KM-20L2): 2.08 µM (inactive)
- GI50 (M19-MEL): 3.85 µM (inactive)
- GI50 (RXF 631): 13.7 µM (inactive)
- GI50 (SNB-78): 13.9 µM (inactive)
- GI50 (XF498): 9.55 µM (inactive)

SMILES: CCCCNCCCNCCCNC(=O)c1csc(-c2csc(CCNC(=O)C(NC(=O)C(C)C(O)C(C)NC(=O)C(NC(=O)c3nc(C(CC(N)=O)NCC(N)C(N)=O)nc(N)c3C)C(OC3OC(CO)C(O)C(O)C3OC3OC(CO)C(O)C(OC(N)=O)C3O)c3c[nH]cn3)C(C)O)n2)n1 (stereo not given)
- GI50 (DMS-114): 0.611 µM (active)
- GI50 (DMS-273): < 0.0458 µM (active)
- GI50 (HOP-18): 37.7 µM (inactive)
- GI50 (Hs-578T): 8.79 µM (inactive)
- GI50 (KM-20L2): 61.5 µM (inactive)
- GI50 (M19-MEL): 8.89 µM (inactive)
- GI50 (RXF 631): 3.58 µM (inactive)
- GI50 (SNB-78): > 73.3 µM (inactive)

SMILES: O=C1c2cccc3c(Cl)ccc(c23)C(=O)N1CCCN1CCN(CCCN2C(=O)c3cccc4c(Cl)ccc(c34)C2=O)CC1
- GI50 (DMS-114): > 100 µM (inactive)
- GI50 (DMS-273): > 100 µM (inactive)
- GI50 (HOP-18): > 100 µM (inactive)
- GI50 (KM-20L2): 46.2 µM (inactive)
- GI50 (RXF 631): 76.7 µM (inactive)
- GI50 (SNB-78): 90.8 µM (inactive)
- GI50 (XF498): > 100 µM (inactive)

SMILES: O=C1/C(=C/c2ccc(Br)cc2)CCC/C1=C\c1ccc(Br)cc1
- GI50 (DMS-114): 13.2 µM (inactive)
- GI50 (DMS-273): 3.57 µM (inactive)
- GI50 (HOP-18): 13.6 µM (inactive)
- GI50 (KM-20L2): 5.22 µM (inactive)
- GI50 (M19-MEL): 4.3 µM (inactive)
- GI50 (RXF 631): 5.05 µM (inactive)
- GI50 (SNB-78): 18.7 µM (inactive)
- GI50 (XF498): 21.8 µM (inactive)

SMILES: COc1c(C)c(O)c2c(=O)cc(-c3ccccc3)oc2c1C
- GI50 (DMS-114): > 100 µM (inactive)
- GI50 (HOP-18): > 100 µM (inactive)
- GI50 (KM-20L2): > 100 µM (inactive)
- GI50 (M19-MEL): > 100 µM (inactive)
- GI50 (RXF 631): > 100 µM (inactive)
- GI50 (SNB-78): > 100 µM (inactive)

SMILES: O=C1c2cccc(O)c2C(=O)c2c(O)cc(CO)cc21 [ALOE-EMODIN]
- GI50 (DMS-114): 28.2 µM (inactive)
- GI50 (DMS-273): 27.5 µM (inactive)
- GI50 (HOP-18): > 100 µM (inactive)
- GI50 (KM-20L2): 39.4 µM (inactive)
- GI50 (RXF 631): 67.5 µM (inactive)
- GI50 (SNB-78): > 100 µM (inactive)
- GI50 (XF498): > 100 µM (inactive)

SMILES: CCC1(c2ccncc2)CCC(=O)NC1=O (stereo not given) [ROGLETIMIDE]
- GI50 (DMS-114): > 100 µM (inactive)
- GI50 (KM-20L2): > 100 µM (inactive)
- GI50 (M19-MEL): > 100 µM (inactive)
- GI50 (RXF 631): > 100 µM (inactive)
- GI50 (SNB-78): > 100 µM (inactive)
- GI50 (XF498): > 100 µM (inactive)
